Test results from publication PMC3854790, “CRIS—A Novel cAMP-Binding Protein Controlling Spermiogenesis and the Development of Flagellar Bending” (PLoS Genetics, 2013).

Biological target: T1, mCRIS CNBD (cit-mCNBD-cer FRET sensor) (Mus musculus, UniProt Q9D5U8)
T1 construct: gene Cnbd2; CNBD, aa 202-353 of mCRIS cDNA from mouse testis; citrine at N terminus, cerulean-His10 at C terminus (also printed cer-mCNBD-cit); expressed in CHO cells
Assay: intramolecular FRET (cerulean/citrine ratio), live-cell imaging
Type: cell-based
Conditions: 3 mM 8-Br-cAMP perfused on CHO cells, 10 min

T1 sequence (Q9D5U8 202-353): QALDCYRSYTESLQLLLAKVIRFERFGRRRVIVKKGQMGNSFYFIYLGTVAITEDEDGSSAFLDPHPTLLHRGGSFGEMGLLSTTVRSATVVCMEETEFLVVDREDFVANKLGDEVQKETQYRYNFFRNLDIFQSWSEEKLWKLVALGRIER

With `Nc1ncnc2c1nc(Br)n2[C@@H]1O[C@@H]2COP(=O)(O)O[C@H]2[C@H]1O` [8-Br-cAMP] the “change in FRET (normalized emission ratio)” value was “Addition of 8-Br-cAMP, a membrane-permeable cAMP analogue, or NKH477, an activator of adenylyl cyclases, changed”.
